The values that follow come from ChEMBL document CHEMBL4431389, “Optimisation of a novel series of potent and orally bioavailable azanaphthyridine SYK inhibitors” (Bioorg Med Chem Lett, 2016).

In general, pKa refers to the pH at which an ionisable group is half protonated. A high value points to a group that holds its proton tightly. As usually defined, the Cmax is the highest concentration seen after dosing. As usually defined, the AUC is the area under the concentration-time curve, a measure of exposure. Read a low AUC as low exposure. A word on the IC50: it is the midpoint of a concentration-inhibition curve. By chromatographic logD is commonly meant a lipophilicity value derived from retention on a column.

Structures are written as SMILES.

A short description of series [1]: Dissociation constant, pKa of the compound. Type of series: physicochemical.
Series [2] in a line: Cmax in rat at 3 mg/kg, po. Type of series: ADME, organism-based. More on the design: dose 3 mg/kg, route oral. The settings on record: in vivo.
Series [3] is described as follows: AUC in rat at 3 mg/kg, po. The note with it: in vivo. Type of series: ADME, organism-based.
In the next series the target is albumin (Homo sapiens, UniProt P02768). Nature of the series: Binding affinity to human serum albumin by HPLC analysis. Type of series: ADME. The settings on record: read-out: PB (converted).
Sequence of albumin (P02768 whole entry): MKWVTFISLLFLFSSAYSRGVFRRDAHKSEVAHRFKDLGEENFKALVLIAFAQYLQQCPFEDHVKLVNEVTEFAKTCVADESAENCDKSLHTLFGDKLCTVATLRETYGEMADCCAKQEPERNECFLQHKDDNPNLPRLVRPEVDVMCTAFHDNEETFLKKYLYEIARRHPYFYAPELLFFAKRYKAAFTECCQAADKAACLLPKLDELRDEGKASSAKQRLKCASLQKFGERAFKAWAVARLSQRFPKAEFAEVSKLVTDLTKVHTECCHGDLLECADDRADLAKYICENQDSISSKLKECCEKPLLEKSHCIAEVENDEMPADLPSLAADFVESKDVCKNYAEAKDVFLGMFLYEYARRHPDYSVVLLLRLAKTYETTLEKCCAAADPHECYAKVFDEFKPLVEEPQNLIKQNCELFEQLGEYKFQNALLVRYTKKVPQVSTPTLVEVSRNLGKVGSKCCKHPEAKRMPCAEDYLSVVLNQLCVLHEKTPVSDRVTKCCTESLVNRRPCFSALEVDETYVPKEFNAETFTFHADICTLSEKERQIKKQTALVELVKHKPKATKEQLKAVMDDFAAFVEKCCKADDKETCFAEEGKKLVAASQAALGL
Series [4] addresses Voltage-gated inwardly rectifying potassium channel KCNH2 (Homo sapiens, UniProt Q12809). Nature of the series: Inhibition of human ERG expressed in CHOK1 cell membranes after 2 hrs by cy3b-dofetilide-based fluorescence polarization assay.
Series [5] deals with T1, Tyrosine-protein kinase SYK (Homo sapiens, UniProt P43405). As to the kind of experiment: Inhibition of N-terminal 6His-tagged full length human recombinant SYK expressed in baculovirus using Biotin-AAAEEIYGEI as substrate after 60 mins by TR-FRET assay. (In TR-FRET formats the signal depends on donor and acceptor labels being close together.)
The target of a further series is Aurora kinase B (Homo sapiens, UniProt Q96GD4). As to the kind of experiment: Inhibition of N-terminal-6His-tagged full length human Aurora B expressed in baculovirus using 5FAM-PKA-tide as substrate after 120 mins by fluorescence polarization assay. (In fluorescence polarisation assays a small probe gives low polarisation when free and higher when bound to something large.)
Sequence of Aurora kinase B (Q96GD4 whole entry): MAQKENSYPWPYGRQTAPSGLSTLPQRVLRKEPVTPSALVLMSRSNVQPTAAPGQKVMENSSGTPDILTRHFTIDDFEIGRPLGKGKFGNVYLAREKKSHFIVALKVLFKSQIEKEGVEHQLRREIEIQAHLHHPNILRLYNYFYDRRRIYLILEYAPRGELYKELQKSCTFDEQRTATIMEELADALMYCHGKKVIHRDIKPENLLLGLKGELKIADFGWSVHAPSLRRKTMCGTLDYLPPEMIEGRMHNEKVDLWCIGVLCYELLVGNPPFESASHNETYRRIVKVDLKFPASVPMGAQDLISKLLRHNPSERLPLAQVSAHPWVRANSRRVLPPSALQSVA

A short description of series [6]: Lipophilicity, log D of the compound by chromatographic method. Type of series: physicochemical.
Series [7] has as its target T1, Tyrosine-protein kinase SYK. As to the kind of experiment: Inhibition of SYK in human B cells assessed as suppression of anti-IgM-induced CD69 surface expression preincubated for 30 mins followed by anti-IgM addition measured after 3.5 hrs by flow cytometric analysis. Type of series: cell-based.

Sequence of Voltage-gated inwardly rectifying potassium channel KCNH2 (Q12809 whole entry): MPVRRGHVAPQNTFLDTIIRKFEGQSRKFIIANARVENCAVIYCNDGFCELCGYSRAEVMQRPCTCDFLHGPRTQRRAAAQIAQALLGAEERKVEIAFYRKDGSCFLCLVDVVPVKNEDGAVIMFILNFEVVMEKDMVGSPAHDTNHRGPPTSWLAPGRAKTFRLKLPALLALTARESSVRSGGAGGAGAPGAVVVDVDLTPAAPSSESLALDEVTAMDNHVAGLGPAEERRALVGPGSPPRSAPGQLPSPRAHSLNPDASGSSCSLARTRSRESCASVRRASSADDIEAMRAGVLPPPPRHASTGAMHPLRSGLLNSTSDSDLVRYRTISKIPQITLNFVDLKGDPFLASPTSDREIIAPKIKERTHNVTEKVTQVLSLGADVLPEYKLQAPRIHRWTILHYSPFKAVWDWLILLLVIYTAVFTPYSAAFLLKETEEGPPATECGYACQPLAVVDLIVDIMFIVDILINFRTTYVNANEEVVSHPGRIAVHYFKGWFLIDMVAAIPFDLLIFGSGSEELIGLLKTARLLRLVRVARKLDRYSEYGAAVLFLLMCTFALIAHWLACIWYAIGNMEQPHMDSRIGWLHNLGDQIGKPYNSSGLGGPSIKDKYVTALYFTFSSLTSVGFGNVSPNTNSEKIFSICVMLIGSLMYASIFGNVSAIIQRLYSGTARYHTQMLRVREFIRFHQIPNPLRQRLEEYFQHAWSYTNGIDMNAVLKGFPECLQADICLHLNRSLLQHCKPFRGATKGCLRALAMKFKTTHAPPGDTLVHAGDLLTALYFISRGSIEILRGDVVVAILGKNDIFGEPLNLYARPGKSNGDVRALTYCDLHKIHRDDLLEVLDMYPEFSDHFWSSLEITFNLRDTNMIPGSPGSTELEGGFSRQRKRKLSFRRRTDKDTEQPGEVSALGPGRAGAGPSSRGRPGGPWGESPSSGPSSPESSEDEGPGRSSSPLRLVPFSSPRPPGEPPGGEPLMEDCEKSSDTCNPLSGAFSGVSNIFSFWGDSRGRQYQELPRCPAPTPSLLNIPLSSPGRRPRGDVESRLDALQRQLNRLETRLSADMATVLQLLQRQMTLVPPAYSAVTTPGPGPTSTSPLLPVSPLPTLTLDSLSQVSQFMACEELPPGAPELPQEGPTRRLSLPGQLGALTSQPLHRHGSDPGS

`Cn1cc(-c2cc3nccnc3c(OCC3CNCCC3(F)F)n2)cn1` (racemic): the pKa in [1] came out at 7.7. In series [2], this compound yielded a Cmax of 28 ng/mL. This compound returned an AUC in series [3] of 99 ng·h/mL.

On to `CN(C)c1ccc(-c2cc3nccnc3c(NCCCCN)n2)cn1`, for which, on albumin, the fraction unbound is 0.11. The compound further showed an IC50 in [4] of 39800 nM.

As to `O=C1CN(c2cc3nccnc3c(NC[C@H]3CCCNC3)n2)CCN1`, the IC50 was 6310 nM in [5] and 7940 nM on Aurora kinase B. Also, the fraction unbound at albumin was 0.41. For the same compound, the chromatographic logD in series [6] amounted to 0.6.

In the case of `CN(C)c1ccc(-c2cc3nccnc3c(NCC(F)(F)F)n2)cn1`, the IC50 in series [5] was 126 nM; against Aurora kinase B, 50.1 nM; in [7], more than 10000 nM; in series [4] it was more than 50100 nM. Also, the fraction unbound on albumin is 0.04. The chromatographic logD in series [6] stood at 5.7.

As for `CN(C)c1ccc(-c2cc3nccnc3c(OC[C@H]3CCCNC3)n2)cn1`, the figures for the IC50 in series [5], in [7] and in series [4] were 3.98 nM, 126 nM and 10000 nM, respectively. In addition, at albumin, the fraction unbound was 0.1.

`Cc1ccc(-c2cc3nc[nH]c(=O)c3c(NC[C@H]3CCCNC3)n2)cc1`: the IC50 in series [5] is 158 nM; in series [7], 3980 nM; in series [4] it was 7940 nM. Moreover, the fraction unbound on albumin is 0.09.

In the case of `CN(C)c1ccc(-c2cc3nccnc3c(NCCCCO)n2)cn1`, the IC50 in [5] is 200 nM; in [7] it was more than 10000 nM; in series [4], 31600 nM. The fraction unbound at albumin is 0.08.

In the case of `Cc1ccc(-c2cc3ncccc3c(NC[C@H]3CCCNC3)n2)cc1`, the IC50 is 20 nM in series [5] and 794 nM in [7]. For the same compound, at albumin, the fraction unbound is 0.05.

As for `CN(C)c1ccc(-c2cc3nccnc3c(NC[C@H]3CCCNC3)n2)cn1`, the IC50 was 15.8 nM in series [5] and 316 nM in series [7]. The fraction unbound on albumin was 0.08.

With `CN(C)c1ccc(-c2cc3nccnc3c(NC[C@@H]3CNCCN3C)n2)cn1`, the figures for the IC50 in series [5] and in series [4] were 50.1 nM and more than 50100 nM, respectively. The fraction unbound at albumin was 0.09.

On to `Cn1cc(-c2cc3nccnc3c(OC[C@H]3CCCNC3)n2)cn1`, for which the concentration for half-maximal inhibition (IC50) was 39.8 nM in series [5], 200 nM in [7] and more than 50100 nM in series [4]. Besides, the fraction unbound at albumin is 0.22.

As to `CN(C)c1ccc(-c2cc3nccnc3c(NCC3CNCC(F)(F)C3)n2)cn1` (racemic), the half-maximal inhibitory concentration (IC50) is 100 nM in series [5], 501 nM against Aurora kinase B, 1580 nM in [7] and more than 50100 nM in [4]. Further, the fraction unbound at albumin is 0.07. In addition, in series [6], the chromatographic logD stood at 4.2.

Consider `Cc1ccc(-c2cc3ncncc3c(NC[C@H]3CCCNC3)n2)cc1`, for which the IC50 was 200 nM in series [5], 3980 nM in series [7] and 10000 nM in series [4]. The fraction unbound on albumin is 0.09.

With `CN(C)c1ccc(-c2cc3nccnc3c(NC[C@H]3CNCCN3C)n2)cn1`, the IC50 was 79.4 nM in [5], 251 nM in [7] and 15800 nM in [4]. In addition, the fraction unbound at albumin is 0.07.

As for `CN(C)c1ccc(-c2cc3nccnc3c(NC[C@@H]3CNCCC3(F)F)n2)cn1`, the IC50 was 2.51 nM in series [5] and 158 nM in series [7]. In addition, the fraction unbound on albumin is 0.05.

In the case of `c1cnc2c(NC[C@H]3CCCNC3)nc(-c3cc[nH]n3)cc2n1`, at albumin, the fraction unbound is 0.21. Moreover, in [4], the IC50 is more than 50100 nM.

For `Cn1cc(-c2cc3nccnc3c(NC[C@@H]3CNCCC3(F)F)n2)cn1`, the IC50 in series [5] is 3.98 nM; in series [7], 79.4 nM; in series [4], 25100 nM.

Turning to `CN1CCNC[C@H]1CNc1nc(-c2cnn(C)c2)cc2nccnc12`, the IC50 was 100 nM in [5], 200 nM in [7] and more than 50100 nM in [4].

For the compound `CN(C)c1ccc(-c2cc3nccnc3c(OC[C@@H]3CCCNC3)n2)cn1`, the IC50 was 25.1 nM in series [5], 501 nM in series [7] and 12600 nM in series [4]. The fraction unbound at albumin was 0.09.

For `c1cnc2c(NC[C@H]3CCCNC3)nc(-c3cn[nH]c3)cc2n1`, the 50% inhibitory concentration (IC50) in series [5] is 50.1 nM; in [7], 316 nM; in series [4] it was more than 50100 nM. For the same compound, the fraction unbound at albumin is 0.24.

As for `CN(C)c1ccc(-c2cc(NC[C@H]3CCCNC3)c3cccnc3c2)cn1`, the IC50 in [5] was 6.31 nM; in [7], 501 nM. For the same compound, the fraction unbound on albumin was 0.05.

With `CN(C)c1ccc(-c2cc3nccnc3c(NC[C@H]3CNCCO3)n2)cn1`, the values for the IC50 in [5], in series [7] and in series [4] were 200 nM, 1580 nM and more than 50100 nM, respectively. In addition, the fraction unbound on albumin is 0.11.

With `CN(C)c1ccc(-c2cc3nccnc3c(NC[C@@H]3CNCCO3)n2)cn1`, the half-inhibitory concentration (IC50) in series [5] is 25.1 nM; in [7], 316 nM; in series [4] it was more than 50100 nM. In addition, at albumin, the fraction unbound was 0.12.

Turning to `Cc1ccc(-c2cc3nccnc3c(NC[C@H]3CCCNC3)n2)s1`, the results for the IC50 in [5], in series [7] and in [4] were 20 nM, 1000 nM and 5010 nM, respectively. Moreover, the fraction unbound on albumin is 0.08.

Consider `CN(C)c1ccc(-c2cc3ncccc3c(NC[C@H]3CCCNC3)n2)cn1`, for which the values for the half-inhibitory concentration (IC50) in [5], in [7] and in series [4] were 7.94 nM, 794 nM and more than 50100 nM, respectively. For the same compound, the fraction unbound on albumin was 0.06.

As for `CN(C)c1ccc(-c2cc3nccnc3c(NC[C@H]3CNCCC3(F)F)n2)cn1`, the IC50 in [5] is 31.6 nM; in series [7], 1580 nM; in series [4], 20000 nM. In addition, the fraction unbound on albumin is 0.05.

In the case of `Cn1cc(-c2cc3nccnc3c(NC[C@H]3CCCNC3)n2)cn1`, the IC50 is 31.6 nM in series [5], 126 nM in series [7] and more than 50100 nM in series [4]. Moreover, the fraction unbound on albumin was 0.25.

For `Cc1ccc(-c2cc3ncn(C)c(=O)c3c(NC[C@H]3CCCNC3)n2)cc1`, the figures for the IC50 in series [5], in series [7] and in series [4] were 79.4 nM, 1260 nM and 25100 nM, respectively. Further, at albumin, the fraction unbound is 0.1.

Consider `CN(C)c1ccc(-c2cc3nccnc3c(CCC3CCCNC3)n2)cn1` (racemic), for which the values for the IC50 in series [5] and in series [7] were 251 nM and 1000 nM, respectively. In addition, the fraction unbound on albumin is 0.09. In series [6], this compound yielded a chromatographic logD of 2.4.

Take `Cc1ccc(-c2cc3nccnc3c(NC[C@H]3CCCNC3)n2)cc1`: the IC50 in series [5] was 25.1 nM; in series [7], 794 nM. In addition, the fraction unbound at albumin was 0.09.

As for `c1cnc2c(NC[C@H]3CCCNC3)nc(N3CCNCC3)cc2n1`, the figures for the IC50 in series [5] and in series [4] were more than 25100 nM and more than 50100 nM, respectively. Besides, the fraction unbound at albumin was 0.3.

In the case of `CN1CCNC[C@H]1COc1nc(-c2cnn(C)c2)cc2nccnc12`, the IC50 in series [7] was 100 nM; in series [4], more than 50100 nM.

With `Cc1ccc(-c2cc3nccnc3c(NC[C@H]3CCCNC3)n2)o1`, the IC50 in [7] is 794 nM; in series [4], 20000 nM.

Turning to `CN(C)c1ccc(-c2cc3nccnc3c(NCCC(N)=O)n2)cn1`, the half-inhibitory concentration (IC50) is 158 nM in series [5], 3980 nM in series [7] and more than 50100 nM in series [4]. For the same compound, the fraction unbound on albumin is 0.04.
